Test results: US20260240819A1, “KAT6 INHIBITOR METHODS AND COMBINATIONS FOR CANCER TREATMENT” (Pfizer Inc., priority 2020, published 2026)
Where “and” joins values, the source holds several entries; their conditions need not be identical. Equal entries are not always repeated.

Key:
[1] = system: T47D cells; test: Proliferation colony formation assay (SRB stain); format: cell-based; conditions: Homo sapiens, 288 h, single agent, 12 days, read-out: Concentration giving 50% proliferation inhibition
Procedure: (§1) T47D, ZR-75-1, or MCF7 cells were seeded into 6-well tissue culture plates at 10% seeding confluence (100,000-150,000 cells per well). After allowing 18-24 hours for the cells to attach to the wells, growth media was aspirated and discarded and new growth media containing 0-20 μM of either COMPOUND A or COMPOUND B was added in 2-fold increments of descending concentration from 20 μM to the cells (proliferation assay). In parallel, seeded cultures with the same titration of the KAT6 inhibitors was added to the cells. 500 nM palbociclib was also added for each concentration of the KAT6 inhibitors (palbociclib recovery assay). The cultures were incubated 12-14 days and treated with these inhibitors/inhibitor combinations. Growth media containing the inhibitors was replaced on the cell cultures every 3-4 days (twice per week).
For the KAT6 inhibitor treated T47D cultures (proliferation assay), after 12 days the vehicle (DMSO) treated cultures were >90% confluent and the cell cultures were SRB stained as described in Example 3. The stained 6-well plates were scanned using an Epson Perfection V600 Photo Scanner and Epson Scan version 3.9.2.0 software. To quantitate SRB staining in each 6-well culture, the cultures were destained with 2 mL 10 mM Tris pH 7.5 per well and the absorbance at 565 nm (O.D. 565) of the released stain was measured using a SpectraMax Plus plate reader and SoftMaxPro 5.4.3 software. Inhibition of T47D cell proliferation by both COMPOUND A and COMPOUND B were equivalent with 50% proliferation inhibition observed with 10 μM of the KAT6 inhibitors (FIGS. 8A and 8C).
Cells were plated at low density into 6-well culture dishes and allowed to attach overnight at 37° C., 5% CO2. The next day, in parallel to the proliferation set, palbociclib was added at a final concentration of […] to another set of plates, which served as the set for palbociclib recovery. To both proliferation and palbociclib recovery plates, DMSO or KAT6 inhibitor was added into each well at increasing doses. Medium and KAT6 inhibitor were refreshed twice a week. Cells were cultured for about two weeks of drug treatment until the DMSO-treated wells reached confluency. At the end of treatment, cells were washed once with phosphate-buffered saline and were fixed and stained with SRB for visualization followed by quantification. […] Wells were fixed and stained with SRB for visualization followed by quantification. To quantify the stain, stained cells were dissolved in 2 mL of 10 mM Tris-HCl, pH 7.5 and shaken for 10 min on a shaker. Samples were then diluted with 10 mM Tris-HCl, pH 7.5, transferred to a 96-well microtiter plate in a volume of 100 μL and read on SpetraMax at 565 nm.

[2] = system: T47D cells; test: Palbociclib recovery colony formation assay (SRB stain); format: cell-based; conditions: Homo sapiens, read-out: KAT6 inhibitor concentration giving 50% inhibition of recovery, with 500 nM palbociclib 14 days, then 14 days recovery
Procedure: as §1
For the T47D cultures arrested with 500 nM palbociclib and treated with increasing concentration of the KAT6 inhibitors (palbociclib recovery assay), after 14 days of combination treatment the growth media containing the inhibitors was aspirated from the cultures and discarded. […] After allowing 14 days for the cultures to recover, those that recovered from single agent 500 nM palbociclib arrest were >90% confluent and all the palbociclib recovery cultures were SRB stained, scanned, and destained/measured as described above. […]

[3] = system: ZR-75-1 cells; test: Proliferation colony formation assay (SRB stain); format: cell-based; conditions: Homo sapiens, 288 h, read-out: Concentration giving 50% inhibition of proliferation; ZR-75-1, single agent, 12 days
Procedure: as §1
(§2) For the ZR-75-1 and MCF7 experiments, only COMPOUND A was tested. For the single agent treated ZR-75-1 cultures the vehicle treated cultures were >90% confluent after 12 days of treatment. These cultures were SRB stained, scanned, and destained/measured as described above. […] After 22 days of recovery, the ZR-75-1 cultures that had been treated with single agent 500 nM palbociclib were >90% confluent and these palbociclib recovery assay cultures were SRB stained, scanned, and destained/measured as described above.
Cells were plated at low density into 6-well culture dishes and allowed to attach overnight at 37° C., 5% CO2. […] At the end of treatment, cells were washed once with phosphate-buffered saline and were fixed and stained with SRB for visualization followed by quantification. […] Wells were fixed and stained with SRB for visualization followed by quantification. To quantify the stain, stained cells were dissolved in 2 mL of 10 mM Tris-HCl, pH 7.5 and shaken for 10 min on a shaker. Samples were then diluted with 10 mM Tris-HCl, pH 7.5, transferred to a 96-well microtiter plate in a volume of 100 μL and read on SpetraMax at 565 nm.

[4] = system: ZR-75-1 cells; test: Palbociclib recovery colony formation assay (SRB stain); format: cell-based; conditions: Homo sapiens, read-out: Concentration giving 50% inhibition of recovery; ZR-75-1, with 500 nM palbociclib 14 days, then 22 days recovery
Procedure: as §1, §2

[5] = system: MCF7 cells; test: Proliferation colony formation assay (SRB stain); format: cell-based; conditions: Homo sapiens, 240 h, read-out: Concentration giving 50% inhibition of proliferation; MCF7, single agent, 10 days
Procedure: as §1
(§3) The MCF7 cells were tested with COMPOUND A. For the single agent treated MCF7 cultures, the vehicle treated cultures were >90% confluent after 10 days of treatment. These cultures were SRB stained, scanned, and destained/measured as described above. […] After 10 days of recovery, the MCF7 cultures that had been treated with single agent 500 nM palbociclib were >90% confluent and these palbociclib recovery assay cultures were SRB stained, scanned, and destained/measured as described above.

[6] = system: MCF7 cells; test: Palbociclib recovery colony formation assay (SRB stain); format: cell-based; conditions: Homo sapiens, read-out: Concentration giving 50% inhibition of recovery; MCF7, with 500 nM palbociclib 14 days, then 10 days recovery
Procedure: as §1, §3

[7] = system: ESR1 (encoding estrogen receptor alpha (ERα)) expression in T47D cells; test: GeneChip gene expression analysis; format: cell-based; conditions: 10 μM, 6 days
Procedure: T47D cell lines having either the Tet-ON KAT6A_5, KAT6A_6, or shRenilla shRNAs were treated with 0.2 μg/mL doxycycline to induce expression of the respective shRNA in the T47D cells and initiate knockdown of KAT6A (KAT6A_5 and KAT6A_6 cells only). The cells were treated with doxycycline for 4 days, which provided suffient time for KAT6A protein depletion in the cells. On day 3 of doxycycline treatment, the KAT6A_5, KAT6A_6, and shRenilla T47D cells were suspended and seeded into 6-well tissue cultures plates at 10% confluence. Parental T47D cells (no shRNA) were also seeded into 6-well tissue culture plates at 10% confluence. On day 4 after shRNA induction, half the T47D KAT6A_5, KAT6A_6, and shRenilla cultures were treated with 0.5 μM palbociclib and half the cultures were kept untreated. All cultures were kept in growth media containing 0.2 μg/mL doxycycline to maintain KAT6A knockdown in the cells throughout the experiment. The parental T47D cells were split into four groups as follows: (1) vehicle treated (DMSO), (2) vehicle+0.5 μM palbociclib, (3) 10 μM COMPOUND A treated, and (4) 10 μM COMPOUND A+0.5 μM palbociclib. The parental T47D and T47D-shRNA cell lines were subsequently treated for 6 days and the growth media, containing the inhibitors represented the different growth conditions described above, was replaced once on day 3 of treatment. […]

[8] = system: ER+ breast cancer PDX model ST340; test: PDX tumor growth inhibition study; format: in vivo, female athymic nude mice; conditions: doses per Table 7; for % TGI Delta: PDX ST340, day 21, compared to Vehicle; for Mean ± SEM (day 21): PDX ST340, tumor volume (mm^3)
Procedure: (§4) Combination studies with palbociclib, fulvestrant and the KAT6 inhibitor, Compound E (KAT6i), were performed in two ER+ breast cancer PDX models: ST340 and ST941. ST340 was wildtype for ESR1. […] Both studies were conducted by XenoSTART (San Antonio, Texas), where 6-12 week-old female athymic nude mice (JAX, stock #007850) were subcutaneously implanted with ~70 mg tumor fragments. Animals were supplemented with exogenous estradiol ad libitum via drinking water throughout the duration of the studies. Tumor measurements and animal weights were captured twice per week, and animals were stratified and enrolled into the study when the mean tumor volume (TV, formula: width^2×length×0.5) reached 150-300 mm^3.
(§5) Each study contained eight treatment groups of n=10 animals per group. The groups were as follows: 1) Vehicle (5% DMSO/40% PEG300/55% 1×PBS), 2) Compound E, 3) palbociclib, 4) fulvestrant, 5) palbociclib+fulvestrant, 6) Compound E +fulvestrant, 7) Compound E+palbociclib, and 8) Compound E+palbociclib+fulvestrant. Animals remained on study and were continued on treatments until the mean tumor volume of each group reached ~1500 mm^3. At that point, the final dose was administered, animals were sacrificed, and terminal samples were collected. Blood microsamples were collected from each group for pharmacokinetics (PK) analysis at 0, 3, and 7 hrs (n=3/timepoint) on day 14 of dosing and again on the terminal day of dosing.
(§6) Analysis of covariance (ANCOVA) was used to determine statistical significance when comparing percent TGI between groups. Changes in bodyweights were calculated in relation to starting bodyweights at study initiation (day 0 of treatment).

[9] = Bodyweight and health monitoring, PDX ST340 study; format: in vivo, female athymic nude mice; conditions: relative to day 0
Procedure: as §4, §5, §6

[10] = Bodyweight and health monitoring, PDX ST941 study; format: in vivo, female athymic nude mice; conditions: relative to day 0
Procedure: as §4, §5, §6

IC50 [1] | IC50 [2] | IC50 [5] | IC50 [6] | Day 21 mean change in bodyweight [9] | Maximum mean bodyweight loss [9] | Day 17 mean change in bodyweight [10] | Maximum mean bodyweight loss [10] | Structure (SMILES) | IC50 [3] | IC50 [4] | ESR1 expression and downstream ERα regulated genes [7] | % TGI Delta [8] | Mean ± SEM (day 21) [8] | % TGI Delta ([8]; listed as fulvestrant)
10 µM | 5 µM | > 20 µM | 5 µM | – | – | – | – | Cc1cc(-c2ccccc2)cc(C(=O)NNS(=O)(=O)c2ccccc2)c1F [COMPOUND A, N′-(4-fluoro-5-methyl-[1,1′-biphenyl]-3-carbonyl)benzenesulfonohydrazide] | 0.3 µM | 2.5 µM | significant downregulation | – | – | –
10 µM | 2.5 µM | – | – | – | – | – | – | O=C(NNS(=O)(=O)c1ccccc1)c1cc(-c2ccccc2)cc(Cl)c1F [COMPOUND B, N′-(5-chloro-4-fluoro-[1,1′-biphenyl]-3-carbonyl)benzenesulfonohydrazide] | – | – | – | – | – | –
– | – | – | – | −2% | −4% | +5% | −4% | COc1ccccc1S(=O)(=O)Nc1noc2cc(Cn3cccn3)cc(OC)c12 [Compound E, 2-methoxy-N-{4-methoxy-6-[(1H-pyrazol-1-yl)methyl]-1,2-benzoxazol-3-yl}benzene-1-sulfonamide] | – | – | – | 55% and 55.4% | 882 ± 86 | –
– | – | – | – | +5% | −2% | 0% | −5% | C[C@]12CC[C@@H]3c4ccc(O)cc4C[C@@H](CCCCCCCCC[S+]([O-])CCCC(F)(F)C(F)(F)F)[C@H]3[C@@H]1CC[C@@H]2O (stereo partly shown) [Fulvestrant] | – | – | – | 21.3% | 1370 ± 195 | ~ 20%
